Assay results published in patent publication US7371773B2, “Breast cancer resistance protein (BCRP) inhibitor” (Kabushiki Kaisha Yakult Honsha, priority 2003, dated 2008).
≈ marks a conversion by molar mass, not a printed value. Where two headings read alike, the source gives them in different places.

What was measured:
Format in all cases: cell-based, human
[1] = system: A549/SN-38-4 cell line; assay: Anticancer drug sensitivity test, A549/SN-38-4; settings: for IC50: A549/SN-38-4, culturing 48 hours; for Relative resistance value: IC50 for A549/SN-38-4 divided by IC50 for A549
Experimental: (§1) Human non-small cell lung cancer A549 cell line was subcultured at 5% CO2 and 37° C. by use of a Ham's F-12 medium containing 10% FBS, 100 U/mL of penicillin, and 100 μg/mL of streptomycin (10% FBS/Ham's F-12). SN-38-resistant A549 cell lines were selected by subculturing the A549 cell line in a medium for two months while the concentration of SN-38 contained in the medium was increased in a stepwise manner (4 to 10 ng/mL). Subsequently, the resultant SN-38-resistant A549 cell lines were subjected to cloning by means of limiting dilution, to thereby establish six cloned SN-38-resistant A549 cell lines (A549/SN-38-1 to 6).
(§2) The A549 cell line or each of the A549/SN-38-1 to 6 was suspended in 10% FBS/Ham's F-12, and the resultant suspension was inoculated into a 96-well microplate, followed by culturing at 5% CO2 and 37° C. overnight. Thereafter, a solution of an anticancer drug in 10% FBS/Ham's F-12 (50 μL) was added to each of the wells, followed by culturing at 5% CO2 and 37° C. for 48 hours. After completion of culturing, the number of viable cells was counted by use of a viable cell counting reagent [TetraColor ONE (trade name), product of Seikagaku Corporation] according to the attached instruction manual. […] “Relative resistance value” is obtained by dividing the IC50 for an A549/SN-38 cell line by the IC50 for the A549 cell line. The greater the relative resistance value, the higher the level of acquired resistance.

[2] = system: A549/SN-38-3 cell line; assay: Anticancer drug sensitivity test, A549/SN-38-3; settings: for IC50: A549/SN-38-3, culturing 48 hours; for Relative resistance value: IC50 for A549/SN-38-3 divided by IC50 for A549
Experimental: as §1, §2

[3] = system: A549/SN-38-5 cell line; assay: Anticancer drug sensitivity test, A549/SN-38-5; settings: for IC50: A549/SN-38-5, culturing 48 hours; for Relative resistance value: IC50 for A549/SN-38-5 divided by IC50 for A549
Experimental: as §1, §2

[4] = system: A549 cell line; assay: Anticancer drug sensitivity test, A549 cell line; settings: culturing 48 hours
Experimental: as §2

[5] = system: A549/SN-38-2 cell line; assay: Anticancer drug sensitivity test, A549/SN-38-2; settings: for IC50: A549/SN-38-2, culturing 48 hours; for Relative resistance value: IC50 for A549/SN-38-2 divided by IC50 for A549
Experimental: as §1, §2

[6] = system: A549/SN-38-1 cell line; assay: Anticancer drug sensitivity test, A549/SN-38-1; settings: for IC50: A549/SN-38-1, culturing 48 hours; for Relative resistance value: IC50 for A549/SN-38-1 divided by IC50 for A549
Experimental: as §1, §2

[7] = system: A549/SN-38-6 cell line; assay: Anticancer drug sensitivity test, A549/SN-38-6; settings: for IC50: A549/SN-38-6, culturing 48 hours; for Relative resistance value: IC50 for A549/SN-38-6 divided by IC50 for A549
Experimental: as §1, §2

[8] = system: A549/SN-38 cell lines; assay: Anticancer drug sensitivity test, A549/SN-38 cell lines as a group; settings: BCRP substrates
[9] = system: A549/SN-38-4 cell line; assay: Amount of anticancer drug accumulated in A549/SN-38 cell line; settings: SN-38 300 ng/mL, 37° C., 60 minutes

SMILES | IC50 ([1]; Homo sapiens, read-out: IC50) | Relative resistance value [1] | IC50 ([2]; Homo sapiens, read-out: IC50) | Relative resistance value [2] | IC50 ([3]; Homo sapiens, read-out: IC50) | Relative resistance value [3] | IC50 ([4]; Homo sapiens, read-out: IC50) | IC50 ([5]; Homo sapiens, read-out: IC50) | Relative resistance value [5] | IC50 ([6]; Homo sapiens, read-out: IC50) | Relative resistance value [6] | IC50 ([7]; Homo sapiens, read-out: IC50) | Relative resistance value [7] | IC50 [1] | IC50 [2] | IC50 [3] | IC50 [4] | IC50 [5] | IC50 [6] | IC50 [7] | other results
Nc1ccn([C@@H]2O[C@H](CO)[C@@H](O)C2(F)F)c(=O)n1 [Gemcitabine] | 3.2 ng/mL (≈ 0.0122 µM) | (0.4) | 4 ng/mL (≈ 0.0152 µM) | (0.4) | 4 ng/mL (≈ 0.0152 µM) | (0.4) | 9 ng/mL (≈ 0.0342 µM) | 5.3 ng/mL (≈ 0.0201 µM) | (0.6) | 3.9 ng/mL (≈ 0.0148 µM) | (0.4) | 4 ng/mL (≈ 0.0152 µM) | (0.4) | – | – | – | – | – | – | – | –
CO[C@@]12[C@H](COC(N)=O)C3=C(C(=O)C(C)=C(N)C3=O)N1C[C@@H]1N[C@@H]12 [Mitomycin C] | – | (1.4) | – | (0.3) | – | (1.0) | – | – | (1.1) | – | (1.2) | – | (0.4) | 150 ng/mL (≈ 0.449 µM) | 2.9 ng/mL (≈ 0.00867 µM) | 110 ng/mL (≈ 0.329 µM) | 110 ng/mL (≈ 0.329 µM) | 110 ng/mL (≈ 0.329 µM) | 130 ng/mL (≈ 0.389 µM) | 47 ng/mL (≈ 0.141 µM) | –
CC(=O)O[C@H]1C(=O)[C@@]2(C)[C@H]([C@H](OC(=O)c3ccccc3)[C@]3(O)C[C@H](OC(=O)[C@H](O)[C@@H](NC(=O)c4ccccc4)c4ccccc4)C(C)=C1C3(C)C)[C@]1(OC(C)=O)CO[C@@H]1C[C@@H]2O [Paclitaxel] | 14 ng/mL (≈ 0.0164 µM) | (2.8) | 13 ng/mL (≈ 0.0152 µM) | (2.7) | 6.1 ng/mL (≈ 0.00714 µM) | (1.2) | 4.9 ng/mL (≈ 0.00574 µM) | 12 ng/mL (≈ 0.0141 µM) | (2.4) | 9.8 ng/mL (≈ 0.0115 µM) | (2.0) | 7.1 ng/mL (≈ 0.00831 µM) | (1.4) | – | – | – | – | – | – | – | –
CCc1c2c(nc3ccc(O)cc13)-c1cc3c(c(=O)n1C2)COC(=O)[C@]3(O)CC [SN-38, 7-ethyl-10-hydroxycamptothecin] | – | (7.7) | – | (9.7) | – | (7.7) | – | – | (7.5) | – | (9.2) | – | (7.4) | 100 ng/mL (≈ 0.255 µM) | 130 ng/mL (≈ 0.331 µM) | 100 ng/mL (≈ 0.255 µM) | 13 ng/mL (≈ 0.0331 µM) | 100 ng/mL (≈ 0.255 µM) | 120 ng/mL (≈ 0.306 µM) | 100 ng/mL (≈ 0.255 µM) | Resistance of A549/SN-38 cell lines to the anticancer drug [8]: particularly strong resistance; Amount of SN-38 accumulated in A549/SN-38-4 relative to A549 cell line [9]: about ⅕
O=C1c2c(O)ccc(O)c2C(=O)c2c(NCCNCCO)ccc(NCCNCCO)c21 [mitoxantrone] | – | – | – | – | – | – | – | – | – | – | – | – | – | – | – | – | – | – | – | – | Resistance of A549/SN-38 cell lines to the anticancer drug [8]: particularly strong resistance
